Experimental data taken from ChEMBL document CHEMBL3507680, “University of Dundee, Gates Library screen for HepG2 cell viability”.

Test: Human HepG2 cell viability assay in 384 well format
Type: toxicity, cell-based
Design: dose 125 nL, time 70.5 hour; concentration not given beside the values
Settings: HepG2 cells, read-out: Inhibition
`Cc1ccc(CN2CC[C@H]3OCC[C@@]3(C(=O)N3CCCO3)C2)o1` showed a cytotoxicity at 70.5 h of 2.99%.
`Cc1nnc2n1CCN(Cc1ncc(-c3ccc(Cl)cc3)o1)C2` gave a cytotoxicity at 70.5 h of -11%.
`CC(C(=O)Nc1ncccn1)N1CCC(n2ccnc2)CC1` (configuration not stated) gave a cytotoxicity at 70.5 h of -4.52%.
Compound `CC1=C(c2ccc(C)cc2)S(=O)(=O)N=C1N1CCc2ccccc21` has a cytotoxicity at 70.5 h of -5.39%.
In the case of `O=C(c1cccnc1)N1CC[C@H](OCC2CC2)[C@@H]1Cc1cccnc1`, the cytotoxicity at 70.5 h is reported as -5.08%.
Compound `Cc1c(Cl)c(C(=O)NCc2ccc(F)cc2)nn1C` has a cytotoxicity at 70.5 h of -5.73%.
`Cc1nccn1-c1ccc(=O)n(CCNC(=O)c2ccncc2)n1` gave a cytotoxicity at 70.5 h of -7.2%.
In the case of `O=S(=O)(c1ccc(F)cc1)N1CCN(CCCn2ccnc2)CC1`, the cytotoxicity at 70.5 h is reported as -1.51%.
With `Cc1cc(C(=O)N2CCc3nnc(N(C)C)cc3C2)c(C)n1C1CC1` the cytotoxicity at 70.5 h was -3.63%.
`COc1cccc(CC(=O)N2CCc3nc(C(N)=O)sc3CC2)c1` showed a cytotoxicity at 70.5 h of -8.31%.
Compound `CCn1cc(CNC(C)c2noc(-c3ccc(Cl)cc3)n2)cn1` (configuration not stated) has a cytotoxicity at 70.5 h of -3.37%.
`Cc1cc(C(=O)N2CCCC(n3cncn3)C2)c(C)n1C1CC1` (configuration not stated) showed a cytotoxicity at 70.5 h of -1.59%.
`CCC[C@H]1CN(S(C)(=O)=O)C[C@@H]1NC(=O)Cc1ccc(F)cc1C` gave a cytotoxicity at 70.5 h of -1.4%.
With `CC(C)c1cc(CN(C)C(=O)CN2CCC(C(N)=O)CC2)no1` the cytotoxicity at 70.5 h was -14.7%.
Work on `CC(=O)NCC(=O)N1CCN(CC2CC2)c2ncccc2C1` yielded a cytotoxicity at 70.5 h of -9.1%.
With `O=C(c1cccs1)N1CCC(n2nc(-c3ccco3)ccc2=O)CC1` the cytotoxicity at 70.5 h was 11.7%.
In the case of `CC(C)COCCCNC(=O)NCC(O)c1cccc(F)c1` (configuration not stated), the cytotoxicity at 70.5 h is reported as -0.106%.
`CC(C)(C)C(=O)Nc1ccc(Oc2ccsc2C(=O)O)cc1` showed a cytotoxicity at 70.5 h of 1.54%.
Work on `Cc1n[nH]c2c1C(c1ccc(Cl)cc1)SCC(=O)N2` (configuration not stated) yielded a cytotoxicity at 70.5 h of 10.6%.
For `CN1CCn2nc(-c3nc4ccccc4n3C)cc2C1`, the cytotoxicity at 70.5 h was 32.2%.
`CN(C)C(=O)COCC1CN(Cc2ccoc2)Cc2ncn(C)c21` (configuration not stated) showed a cytotoxicity at 70.5 h of -3.96%.
`CC(C)(C)N1CCN(C(=O)c2cccnc2-n2cncn2)CC1` gave a cytotoxicity at 70.5 h of 0.2%.
For `CC1CCN(c2ccc(CNC(=O)NCCn3ccnc3)cn2)CC1`, the cytotoxicity at 70.5 h was -0.689%.
With `Cc1cnn(CCNCc2nnc(Cc3ccccc3)o2)c1` the cytotoxicity at 70.5 h was -1.13%.
For `O=c1[nH]c(-c2ccc(F)cc2)nc2c1CCNC2`, the cytotoxicity at 70.5 h was -0.466%.
For `CCc1noc(C(C)N2CCN(Cc3nnc(C4CC4)o3)CC2)n1` (configuration not stated), the cytotoxicity at 70.5 h was -14.9%.
`O=c1n(Cc2ncccn2)nc(C2CCNCC2)n1-c1ccccc1` gave a cytotoxicity at 70.5 h of -2.01%.
`O=c1c2cccnc2cnn1CC(O)c1ccc(Br)cc1` (configuration not stated) showed a cytotoxicity at 70.5 h of 12%.
`Cc1ccc(CNS(=O)(=O)CC2=NC(=O)n3cccc3C2=O)cc1` showed a cytotoxicity at 70.5 h of -10.8%.
Work on `CCN1CCC2(C=C(C(=O)N(C)C)c3ccccc32)CC1` yielded a cytotoxicity at 70.5 h of 0.372%.
`Cc1noc(CNC(=O)[C@@H](C)NC(=O)OC(C)(C)C)n1` showed a cytotoxicity at 70.5 h of -2.55%.
Compound `CN(C)S(=O)(=O)N1CC[C@]2(O)CCN(c3nccs3)C[C@@H]2C1` has a cytotoxicity at 70.5 h of 21.2%.
`Cc1noc(C)c1CN1CCc2ncnc(-c3ccccc3)c2CC1` showed a cytotoxicity at 70.5 h of 18.5%.
Compound `CCCN1CCC(CC(=O)N(C)C(C)c2cncs2)CC1` (configuration not stated) has a cytotoxicity at 70.5 h of -16.1%.
In the case of `O=C1N[C@@H]2CCN(C(=O)C3CCCC3)[C@@H]2C(=O)N1c1ccc(F)cc1`, the cytotoxicity at 70.5 h is reported as -2.52%.
Compound `O=C(C1CCOC1)N1C[C@H]2CN(Cc3nccs3)C[C@H]2C1` (some centres not stated) has a cytotoxicity at 70.5 h of -2.75%.
In the case of `Cc1noc(C)c1-c1nc(NCCN(C)C)ncc1-c1cnccn1`, the cytotoxicity at 70.5 h is reported as -6.59%.
With `Cc1cc2nc(CO[C@H]3CN(C4CCC4)C[C@H]3F)[nH]c2cc1C` the cytotoxicity at 70.5 h was -2.01%.
Compound `CC(C)(C)n1ncc2c1NC(=O)CC2c1cccc(F)c1` (configuration not stated) has a cytotoxicity at 70.5 h of 3.13%.
`CC(C(=O)Nc1ccc(N2CCCC2)nc1)n1cncn1` (configuration not stated) gave a cytotoxicity at 70.5 h of -12.1%.
`CCN1CCN2CCCN(S(=O)(=O)c3ccc(C)cc3C)C2C1=O` (configuration not stated) showed a cytotoxicity at 70.5 h of -4.62%.
Work on `Cc1cccc(N2CCOCC3(C2)CN(c2ccoc2)C(=O)CO3)n1` (configuration not stated) yielded a cytotoxicity at 70.5 h of 6.55%.
For `Cc1nc(C(=O)N2CCOC(Cc3ccccc3)C2)co1` (configuration not stated), the cytotoxicity at 70.5 h was 23%.
Work on `CNc1cc(C)nc(C2CN(Cc3cc[nH]n3)CCO2)c1` (configuration not stated) yielded a cytotoxicity at 70.5 h of -7.87%.
`CC(C)CCNC(=O)c1cccnc1Oc1cccnc1` showed a cytotoxicity at 70.5 h of -6.47%.
Work on `O=C(CS(=O)(=O)Cc1ccccc1)NCc1ccccc1F` yielded a cytotoxicity at 70.5 h of 22.1%.
`CC(C)Nc1cc(N2CCC(n3cc(CCO)nn3)CC2)ncn1` showed a cytotoxicity at 70.5 h of 16.9%.
`CN(C)C(=O)c1ccc2c(c1)N(C)C(CC(=O)NC(C)(C)CO)CO2` (configuration not stated) showed a cytotoxicity at 70.5 h of 18.8%.
For `CC(C)Cc1nc(OCC#N)c(C#N)c2c1CCC2`, the cytotoxicity at 70.5 h was -2.63%.
Work on `CC(C)(C)c1noc(CCCC(=O)N2CCCC(c3ccn[nH]3)C2)n1` (configuration not stated) yielded a cytotoxicity at 70.5 h of -2.4%.
`Cn1ncc2c(NC3CCC3)nc(-c3ccncc3)nc21` gave a cytotoxicity at 70.5 h of -0.235%.
Compound `COc1ccccc1NC(=O)Cn1c(=O)nc(N)c2cc(C)sc21` has a cytotoxicity at 70.5 h of -16.1%.
`COC(=O)CC(C)(C)CC(=O)N1CCC(C(F)(F)F)CC1` showed a cytotoxicity at 70.5 h of 1.71%.
Work on `Cc1noc(C(C)C)c1C(=O)NCC(c1ccsc1)N(C)C` (configuration not stated) yielded a cytotoxicity at 70.5 h of 4.78%.
`CC(C)c1nc(CN2CCOC(Cn3cncn3)C2)cs1` (configuration not stated) showed a cytotoxicity at 70.5 h of -3.19%.
`CN1CCOC(CNCc2nc(-c3ccoc3)no2)C1` (configuration not stated) gave a cytotoxicity at 70.5 h of -6.11%.
For `Cc1ccnc(OC[C@@]23CCO[C@@H]2CCN(S(C)(=O)=O)C3)n1`, the cytotoxicity at 70.5 h was -7.11%.
